This note sets out measurements from ChEMBL document CHEMBL2010727, “A novel series of benzimidazole NR2B-selective NMDA receptor antagonists” (Bioorg Med Chem Lett, 2012).

Molecules are shown by their SMILES. The source made the active and inactive calls. The calls are words filed in the database; no cut-off is given here.

Data set [1] can be described thus: Inhibition of alpha1 adrenergic receptor at 10 uM.
The target in data set [2] is T1, Glutamate NMDA receptor; GRIN1/GRIN2B (Homo sapiens) (UniProt Q05586+Q13224). The experiment in a line: Reversible inhibition of human NR1-NR2B receptor expressed in HEK293T cells assessed as inhibition of glycine-induced response by whole cell voltage clamp electrophysiology assay. Type of data set: cell-based. To be noted: HEK-293T.
The target in data set [3] is T1, Glutamate NMDA receptor; GRIN1/GRIN2B (Homo sapiens). The experiment in a line: Reversible inhibition of human NR1-NR2B receptor expressed in HEK293T cells assessed as inhibition of glutamate-induced response by whole cell voltage clamp electrophysiology assay. In kind it is cell-based. The settings on record: HEK-293T.
Another data set is filed under the species Homo sapiens. The experiment in a line: Selectivity ratio of human NR2B receptor over human ERG.
Data set [4] addresses Glutamate receptor ionotropic, NMDA 2B (Homo sapiens, UniProt Q05586+Q13224). Put plainly: Displacement of [3H]-Ro256981 from human NR2B receptor. (Displacement assays read how much labelled ligand stays bound in the presence of the test substance.)
Data set [5] in a line: Antagonist activity at human NR1-NR2A receptor by FLIPR-based Ca2+ flux assay. On the technique in general: A change in cytosolic calcium serves as a functional read-out for many receptors and channels.
A further data set concerns the target Cytochrome P450 2C19 (Homo sapiens, UniProt P33261). Put plainly: Inhibition of CYP2C19. In kind it is ADME.
The next data set addresses Cytochrome P450 2D6 (Homo sapiens, UniProt P10635). The experiment in a line: Inhibition of CYP2D6. In kind it is ADME.
A further data set addresses Cytochrome P450 2C9 (Homo sapiens, UniProt P11712). Put plainly: Inhibition of CYP2C9. Type of data set: ADME.
Another data set concerns Liver microsomes. Put plainly: Intrinsic clearance in human liver microsomes. Type of data set: ADME, Microsome. (Microsomes from liver hold many membrane-bound enzymes, among them those of drug oxidation.)
The next data set has as its target Cytochrome P450 3A4 (Homo sapiens, UniProt P08684). Put plainly: Inhibition of CYP3A4. Type of data set: ADME.
A further data set deals with T2, Cytochrome P450 1A2 (Homo sapiens, UniProt P05177).
T2 sequence (P05177 whole entry): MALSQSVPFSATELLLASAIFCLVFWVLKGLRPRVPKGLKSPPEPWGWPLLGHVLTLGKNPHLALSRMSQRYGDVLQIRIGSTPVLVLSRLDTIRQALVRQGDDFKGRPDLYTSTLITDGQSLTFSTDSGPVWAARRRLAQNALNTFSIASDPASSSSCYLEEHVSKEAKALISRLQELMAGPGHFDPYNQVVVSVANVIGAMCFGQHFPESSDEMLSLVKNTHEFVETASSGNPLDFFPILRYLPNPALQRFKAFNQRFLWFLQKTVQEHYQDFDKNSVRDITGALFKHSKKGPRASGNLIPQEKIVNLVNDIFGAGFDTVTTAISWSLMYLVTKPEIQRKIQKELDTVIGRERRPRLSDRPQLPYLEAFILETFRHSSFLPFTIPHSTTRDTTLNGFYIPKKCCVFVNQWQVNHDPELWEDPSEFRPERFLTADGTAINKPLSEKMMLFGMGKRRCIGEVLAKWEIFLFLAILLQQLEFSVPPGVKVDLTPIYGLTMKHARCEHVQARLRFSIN
The experiment in a line: Inhibition of CYP1A2. Type of data set: ADME.

The nature of data set [6]: Ratio of drug level in brain to blood in rat at 3 mg/kg, sc. The arrangement: dose 3 mg/kg, route subcutaneous. Type of data set: ADME, organism-based.
In a further data set the test system is Blood. The experiment in a line: Drug uptake in rat blood at 3 mg/kg, sc. Also on record: dose 3 mg/kg, route subcutaneous. To be noted: in vivo, read-out: Drug uptake. Type of data set: ADME, organism-based.
A short description of data set [7]: Tmax in rat at 3 mg/kg, sc. In kind it is ADME, organism-based. The arrangement: dose 3 mg/kg, route subcutaneous. To be noted: in vivo.
Data set [8] can be described thus: Terminal half life in rat at 3 mg/kg, sc. Type of data set: ADME, organism-based. Also on record: dose 3 mg/kg, route subcutaneous. To be noted: in vivo, read-out: beta t1/2 (converted).

Sequence of Cytochrome P450 2C9 (P11712 whole entry): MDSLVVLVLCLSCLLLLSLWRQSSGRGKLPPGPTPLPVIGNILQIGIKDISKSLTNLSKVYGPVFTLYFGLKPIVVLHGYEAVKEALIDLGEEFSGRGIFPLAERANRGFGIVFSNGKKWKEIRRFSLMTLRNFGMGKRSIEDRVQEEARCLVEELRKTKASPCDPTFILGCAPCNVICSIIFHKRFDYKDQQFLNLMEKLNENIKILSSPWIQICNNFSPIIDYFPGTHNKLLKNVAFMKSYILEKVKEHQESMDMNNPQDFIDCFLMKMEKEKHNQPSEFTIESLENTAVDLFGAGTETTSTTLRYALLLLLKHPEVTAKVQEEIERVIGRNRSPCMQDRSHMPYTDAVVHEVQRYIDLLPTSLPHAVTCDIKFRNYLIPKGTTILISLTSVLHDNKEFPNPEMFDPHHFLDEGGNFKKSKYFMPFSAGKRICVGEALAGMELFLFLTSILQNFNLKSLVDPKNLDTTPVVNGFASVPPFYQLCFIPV
Sequence of Cytochrome P450 3A4 (P08684 whole entry): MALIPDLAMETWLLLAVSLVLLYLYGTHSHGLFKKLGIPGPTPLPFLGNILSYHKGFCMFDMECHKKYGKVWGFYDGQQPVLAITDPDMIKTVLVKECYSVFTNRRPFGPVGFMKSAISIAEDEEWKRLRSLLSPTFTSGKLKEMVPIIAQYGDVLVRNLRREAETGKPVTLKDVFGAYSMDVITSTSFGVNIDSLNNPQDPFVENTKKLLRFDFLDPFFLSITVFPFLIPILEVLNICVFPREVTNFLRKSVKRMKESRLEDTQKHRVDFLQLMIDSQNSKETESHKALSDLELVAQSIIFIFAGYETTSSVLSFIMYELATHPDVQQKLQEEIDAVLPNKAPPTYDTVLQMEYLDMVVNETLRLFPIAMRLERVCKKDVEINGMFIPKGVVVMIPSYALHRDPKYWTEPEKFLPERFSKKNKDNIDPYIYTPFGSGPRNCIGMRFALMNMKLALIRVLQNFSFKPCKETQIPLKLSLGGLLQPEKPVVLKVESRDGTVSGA
Sequence of Cytochrome P450 2D6 (P10635 whole entry): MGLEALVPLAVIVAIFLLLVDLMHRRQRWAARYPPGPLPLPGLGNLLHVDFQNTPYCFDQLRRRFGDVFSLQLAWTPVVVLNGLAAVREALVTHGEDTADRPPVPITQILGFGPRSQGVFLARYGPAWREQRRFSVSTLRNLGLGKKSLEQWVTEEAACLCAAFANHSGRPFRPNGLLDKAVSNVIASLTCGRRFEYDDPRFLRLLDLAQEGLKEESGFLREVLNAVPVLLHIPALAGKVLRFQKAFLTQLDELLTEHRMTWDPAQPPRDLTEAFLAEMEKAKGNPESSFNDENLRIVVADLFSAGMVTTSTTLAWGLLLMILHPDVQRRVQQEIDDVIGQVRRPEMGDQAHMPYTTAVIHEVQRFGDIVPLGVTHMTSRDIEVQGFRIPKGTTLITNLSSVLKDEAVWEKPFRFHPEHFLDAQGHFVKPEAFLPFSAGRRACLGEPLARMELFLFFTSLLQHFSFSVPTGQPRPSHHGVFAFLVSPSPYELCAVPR
Sequence of Cytochrome P450 2C19 (P33261 whole entry): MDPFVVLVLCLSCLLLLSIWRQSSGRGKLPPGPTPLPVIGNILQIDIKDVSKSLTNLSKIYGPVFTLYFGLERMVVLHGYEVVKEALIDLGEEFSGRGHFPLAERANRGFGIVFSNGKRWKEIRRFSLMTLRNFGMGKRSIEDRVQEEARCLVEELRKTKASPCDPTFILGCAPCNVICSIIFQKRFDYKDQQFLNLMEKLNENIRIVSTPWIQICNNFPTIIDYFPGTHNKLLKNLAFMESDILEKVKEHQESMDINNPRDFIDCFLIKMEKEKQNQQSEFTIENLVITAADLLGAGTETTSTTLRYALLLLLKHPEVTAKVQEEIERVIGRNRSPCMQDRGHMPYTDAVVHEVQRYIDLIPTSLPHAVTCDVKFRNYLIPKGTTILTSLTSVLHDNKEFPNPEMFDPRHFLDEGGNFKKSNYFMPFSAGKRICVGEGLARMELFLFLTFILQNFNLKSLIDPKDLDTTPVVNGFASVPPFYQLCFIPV

For `CC(C)NCc1c(F)ccc2[nH]c(-c3ccccc3)nc12`, the inhibition (in general, how much of the control response was suppressed) in [1] is under 50%. Besides, the inhibition entry in [2] and in data set [3] was “Active” each time. Also, in the data set filed under Homo sapiens, the Selectivity ratio was over 100.
Turning to `Oc1ccc2[nH]c(-c3ccccc3)nc2c1CN1CCC(c2ccccc2)CC1`, the IC50 (commonly the concentration needed to halve the response being measured) in [4] is 0.0794 µM; in [5] it was over 50.1 µM. In addition, the Selectivity ratio in the data set listed under Homo sapiens is over 100.
For `Fc1ccc2nc(-c3ccccc3)[nH]c2c1CN1CCCC1`, the IC50 on Cytochrome P450 2C19 was over 30 µM; at Cytochrome P450 2D6 it was 5 µM; on Cytochrome P450 2C9, over 30 µM; at Cytochrome P450 3A4, over 30 µM; against Cytochrome P450 1A2, 16 µM. In addition, the CLH in the data set with Liver microsomes is under 0.5 mL/min/g.
On to `Fc1ccc2[nH]c(-c3ccccc3)nc2c1CN1CCOCC1`, for which the inhibition in data set [1] was under 50%. In addition, the inhibition result in data set [2] and in data set [3] was “Active” throughout. In the data set listed under Homo sapiens, the Selectivity ratio was over 100.
`O=C(c1cccc2[nH]c(-c3ccccc3)nc12)N1CCCCC1` yielded an inhibition in [1] of under 50%. The inhibition entry in [2] and in [3] was “Active” in each case. For the same compound, the Selectivity ratio in the data set listed under Homo sapiens is over 100.
`Oc1ccc2nc(-c3cccc(F)c3F)[nH]c2c1CNCc1ccco1`: the IC50 is 0.794 µM in data set [4] and over 50.1 µM in [5].
On to `CCCNCc1c(O)ccc2[nH]c(-c3ccccc3)nc12`, for which the inhibition in data set [1] was under 50%.
Regarding `CN1CCN(Cc2c(O)ccc3[nH]c(-c4ccccc4)nc23)CC1`, the inhibition in data set [1] is under 50%. Further, the Selectivity ratio in the data set listed under Homo sapiens is over 100.
Turning to `CN1CCN(Cc2c(O)ccc3nc(-c4ccccc4)[nH]c23)CC1`, the results for the half-maximal inhibitory concentration (IC50) in data set [4] and in data set [5] were 0.398 µM and over 50.1 µM, respectively.
In the same order, the values of `Fc1ccc2nc(-c3ccccc3)[nH]c2c1CN1CCCCC1` are 0.0794 µM and over 50.1 µM.
As to `c1ccc(-c2nc3c(CN4CCCCC4)cccc3[nH]2)cc1`, the inhibition in [1] is under 50%. For the same compound, the inhibition entry in data set [2] and in data set [3] was “Active” throughout.
`Fc1ccc2[nH]c(-c3ccccc3)nc2c1CN1CCCC1` displayed an inhibition in data set [1] of under 50%. Besides, the inhibition result in [2] and in [3] was “Active” in each case.
`Oc1ccc2[nH]c(-c3cccc(F)c3F)nc2c1CNCc1cccs1` had an inhibition in [1] of under 50%.
Compound `Fc1ccc2[nH]c(-c3ccccc3)nc2c1CN1CCCCC1` had an inhibition in data set [1] of under 50%. In addition, the inhibition entry in data set [2] and in data set [3] was “Active” in each case. In addition, in the data set listed under Homo sapiens, the Selectivity ratio is over 100.
In [1], `Oc1ccc2[nH]c(-c3ccccc3)nc2c1CN1CCOCC1` returned an inhibition of under 50%.
Take `Oc1ccc2[nH]c(-c3ccccc3)nc2c1CNC1CCCC1`: the inhibition in data set [1] is under 50%. In addition, the Selectivity ratio in the data set filed under Homo sapiens is over 100.
In the case of `O=C(c1cccc2nc(-c3ccccc3)[nH]c12)N1CCCCC1`, the IC50 is over 10 µM in [4] and over 50.1 µM in data set [5].
For the compound `Fc1ccc2[nH]c(-c3ccccc3)nc2c1CN1CCCCCC1`, the IC50 in data set [4] was 0.2 µM; in data set [5], over 50.1 µM. This compound registered an inhibition in data set [1] of under 50%. In addition, the inhibition result in [2] and in [3] was “Active” throughout. In addition, the Selectivity ratio in the data set listed under Homo sapiens is over 100.
The compound `CN(C)Cc1c(O)ccc2[nH]c(-c3ccccc3)nc12` showed an inhibition in data set [1] of under 50%.
`Cc1ccc(-c2nc3c(CNC4CC4)c(O)ccc3[nH]2)cc1`: the half-inhibitory concentration (IC50) was 0.0398 µM in [4] and over 50.1 µM in [5]. This compound displayed an inhibition in data set [1] of under 50%. For the same compound, the Selectivity ratio in the data set filed under Homo sapiens is over 100.
In data set [1], `Oc1ccc2[nH]c(-c3cccc(F)c3F)nc2c1CNCc1ccco1` yielded an inhibition of under 50%. Further, in the data set listed under Homo sapiens, the Selectivity ratio is over 100.
In the case of `Oc1ccc2[nH]c(-c3ccccc3)nc2c1CN1CCCC1`, the inhibition in data set [1] was under 50%. In addition, the Selectivity ratio in the data set listed under Homo sapiens is over 100.
Consider `Fc1ccc2nc(-c3ccccc3)[nH]c2c1CN1CCOCC1`, for which the concentration for half-maximal inhibition (IC50) in [4] is 2.51 µM; in data set [5] it was over 50.1 µM.
Consider `CCC1CCCCN1Cc1c(F)ccc2[nH]c(-c3ccccc3)nc12` (stereo not drawn), for which the inhibition in [1] is under 50%. The inhibition entry in data set [2] and in [3] was “Active” in each case. Also, the Selectivity ratio in the data set listed under Homo sapiens was over 100.
Consider `c1ccc(-c2nc3cccc(CN4CCCCC4)c3[nH]2)cc1`, for which the IC50 against Cytochrome P450 2C19 is over 50 µM; against Cytochrome P450 2D6, 5 µM; at Cytochrome P450 2C9, over 50 µM; against Cytochrome P450 3A4, over 50 µM; on Cytochrome P450 1A2, 7 µM. For the same compound, the CLH with Liver microsomes came out at 3.6 mL/min/g.
The compound `Oc1ccc2[nH]cnc2c1CN1CCCCC1` came in with an inhibition in data set [1] of under 50%.
Turning to `Oc1ccc2nc(-c3ccccc3)[nH]c2c1CN1CCCC1`, the 50% inhibitory concentration (IC50) in [4] is 0.00794 µM; in [5], over 50.1 µM.
In the case of `Oc1ccc2[nH]c(-c3ccccc3)nc2c1CN1CCCCCC1`, the IC50 in data set [4] was 0.00794 µM; in [5], over 50.1 µM. Moreover, in data set [1], the inhibition is under 50%. Further, in the data set filed under Homo sapiens, the Selectivity ratio is over 100.
For the compound `Oc1ccc2nc(-c3cccc(F)c3F)[nH]c2c1CN1CCCC1`, the figures for the IC50 in [4] and in data set [5] were 0.0126 µM and over 50.1 µM, respectively.
The matching figures for `CC(C)NCc1c(F)ccc2nc(-c3ccccc3)[nH]c12`: 0.794 µM and over 50.1 µM.
Regarding `Cc1cccc2[nH]c(-c3ccccc3)nc12`, the IC50 in data set [4] is over 10 µM; in data set [5] it was over 50.1 µM. The compound further showed an inhibition in [1] of under 50%. Besides, the inhibition entry in data set [2] and in [3] was “Active” throughout. In the data set filed under Homo sapiens, the Selectivity ratio was over 100.
In [1], `Oc1ccc2[nH]c(-c3cccc(F)c3F)nc2c1CN1CCCC1` registered an inhibition of under 50%. Further, the Selectivity ratio in the data set listed under Homo sapiens is over 100.
`Oc1ccc2[nH]c(Cc3ccccc3)nc2c1CN1CCCC1` returned an inhibition in data set [1] of under 50%.
In [1], `Oc1ccc2[nH]c(-c3ccccc3)nc2c1CN1CCCCC1` had an inhibition of under 50%. In addition, the IC50 at Cytochrome P450 2C19 was over 30 µM; at Cytochrome P450 2D6, 6 µM; against Cytochrome P450 2C9, over 30 µM; on Cytochrome P450 3A4, over 30 µM; against Cytochrome P450 1A2, 3 µM. For the same compound, the concentration ratio (Kp) (commonly tissue or fluid exposure divided by exposure in the circulation) in [6] worked out at 2.7. The concentration in the data set on Blood came to 600 nM. In addition, the time to peak (Tmax) (as a rule, the time from dosing to the highest level) in [7] stood at 48 min. Also, the CLH with Liver microsomes was found to be 3.9 mL/min/g. Also, the half-life in data set [8] is 66 min.
For `Oc1ccc2nc(-c3ccccc3)[nH]c2c1CNC1CCCC1`, the half-maximal inhibitory concentration (IC50) in data set [4] is 0.0316 µM; in data set [5] it was over 50.1 µM.
In the same order, the values of `CCC1CCCCN1Cc1c(F)ccc2nc(-c3ccccc3)[nH]c12` (stereo not drawn) are 1 µM and over 50.1 µM.
